Data on 27 compounds can be found in US20240199546A1, “INHIBITORS OF SOLUTE CARRIER FAMILY 6A MEMBER 19 (SLC6A19) AND METHODS OF USE THEREOF” (Maze Therapeutics, Inc., priority 2022, published 2024).

Each structure is given as a SMILES string.

For this experiment, the target named is T1, human SLC6A19 and TMEM27 (Homo sapiens, UniProt Q695T7).
T1 construct: expressed in transfected cells
T1 sequence (Q695T7 1-634): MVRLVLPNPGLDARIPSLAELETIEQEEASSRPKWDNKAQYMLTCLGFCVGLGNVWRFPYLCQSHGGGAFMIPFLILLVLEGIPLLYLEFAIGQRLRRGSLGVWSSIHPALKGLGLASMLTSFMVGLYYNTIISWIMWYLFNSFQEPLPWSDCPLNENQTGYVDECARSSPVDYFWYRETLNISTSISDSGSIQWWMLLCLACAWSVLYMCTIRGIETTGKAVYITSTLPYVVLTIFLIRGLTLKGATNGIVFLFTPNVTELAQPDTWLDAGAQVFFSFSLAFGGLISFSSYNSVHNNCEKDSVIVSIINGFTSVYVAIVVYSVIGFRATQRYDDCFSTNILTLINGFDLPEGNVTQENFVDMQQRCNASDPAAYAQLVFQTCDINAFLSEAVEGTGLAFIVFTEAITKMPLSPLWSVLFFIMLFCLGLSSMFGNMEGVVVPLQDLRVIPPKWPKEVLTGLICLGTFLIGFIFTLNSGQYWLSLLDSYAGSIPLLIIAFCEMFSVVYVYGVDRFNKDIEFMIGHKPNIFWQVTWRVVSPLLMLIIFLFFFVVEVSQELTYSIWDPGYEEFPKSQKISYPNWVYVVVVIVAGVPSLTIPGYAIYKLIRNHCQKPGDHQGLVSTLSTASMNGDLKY
T1 sequence (Q9HBJ8 15-222 partner): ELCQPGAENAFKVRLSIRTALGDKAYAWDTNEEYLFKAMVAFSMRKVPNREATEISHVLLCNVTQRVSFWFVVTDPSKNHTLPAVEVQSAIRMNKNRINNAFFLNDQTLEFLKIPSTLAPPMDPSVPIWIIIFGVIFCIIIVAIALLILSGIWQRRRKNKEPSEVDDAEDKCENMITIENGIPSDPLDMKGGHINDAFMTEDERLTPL
In words: Radiolabelled (3H) leucine uptake in CHO cells with doxycycline-inducible expression of human SLC6A19 and TMEM27 (Example B-1). The class given is cell-based. The settings on record: CHO cells with doxycycline-inducible expression of human SLC6A19 and TMEM27, read-out: SLC6A19_Radioligand Uptake Assay IC50. The protocol: The flasks were then incubated (humidified, 37° C. with 5% CO2) for 2 minutes. After incubation, 10 mL of pre-warmed cell culture media was added to each flask. The cell suspension was collected and centrifuged for 5 minutes at 200×g. The supernatant was aspirated and the pellet was resuspended in 5 mL pre-warmed cell culture media. The resuspended cells were counted using the Countess Cell Counting Chamber (Invitrogen) and the cell concentration of the suspension was readjusted to 1 million live cells/mL using pre-warmed cell culture media. […] Assay plates were then incubated (humidified, 37° C. with 5% CO2) for 18 hours. After incubation, the media was aspirated and the wells were washed 4 times with pre-warmed HBSS (Sigma-Aldrich, H8264-1L) using an Apricot S-Pipette S2 (Apricot Designs), such that 5 uL/well HBSS was remaining at the end of each wash. […] At this step, the final in-well DMSO concentration in the assay plate is 0.5%. All compounds were plated in a duplicate 8-point dilution series that consisted of 3-fold dilutions. The plates were incubated with compound (humidified, 37° C. with 5% CO2) for 1 hour. […] The plates were then incubated (humidified, 37° C. with 5% CO2) on a plate shaker at 200 rpm for 2 hours. After incubation, the plates were removed from the shaker and kept at room temperature for 15 minutes. Liquid scintillation analysis was performed using the MicroBeta2 Microplate Counter (Perkin Elmer). Activity (%) was derived by normalizing the average of positive control compound treated wells to 0% and the average of DMSO (negative control) wells to 100%. Collaborative Drug Discovery software was used for graphing data.
By IC50 is commonly meant the concentration that gives 50% inhibition. As for `O=C(NCc1cc2cc(F)c(OCc3ccon3)cc2[nH]1)N1CCCCC1` [Compound 88, N-((5-fluoro-6-(isoxazol-3-ylmethoxy)-1H-indol-2-yl)methyl)piperidine-1-carboxamide], the IC50 is 477 nM.

In the case of `Cc1cc(COc2cc3[nH]c(CNC(=O)[C@@H]4C[C@@H](F)CN4C)cc3cc2Cl)on1` [Compound 667, (2S,4R)—N-((5-chloro-6-((3-methylisoxazol-5-yl)methoxy)-1H-indol-2-yl)methyl)-4-fluoro-1-methylpyrrolidine-2-carboxamide], the IC50 was 524 nM.

`O=C(NCc1cc2cc(Cl)c(OCc3cscn3)cc2[nH]1)[C@H]1C[C@H]1F` [Compound 541, (1R,2R)-N-((5-chloro-6-(thiazol-4-ylmethoxy)-1H-indol-2-yl)methyl)-2-fluorocyclopropane-1-carboxamide]: the IC50 is 141 nM.

In the case of `CNCC(=O)NCc1cc2cc(Cl)c(OCc3cc(C)no3)cc2[nH]1` [Compound 615, N-((5-chloro-6-((3-methylisoxazol-5-yl)methoxy)-1H-indol-2-yl)methyl)-2-(methylamino)acetamide], the IC50 is 2070 nM.

Consider `O=C(NCc1cc2cc(Cl)c(OCc3cscn3)cc2[nH]1)C12CC(C1)C2` [Compound 552, N-((5-chloro-6-(thiazol-4-ylmethoxy)-1H-indol-2-yl)methyl)bicyclo[1.1.1]pentane-1-carboxamide], for which the IC50 was 340 nM.

Turning to `CC(=O)NCc1cc2cc(Cl)c(OCCOCC(F)F)cc2[nH]1` [Compound 650, N-((5-chloro-6-(2-(2,2-difluoroethoxy)ethoxy)-1H-indol-2-yl)methyl)acetamide], the concentration for half-maximal inhibition (IC50) is 1010 nM.

Take `O=C(NCc1cc2cc(Cl)c(OCc3ccon3)cc2[nH]1)N1CCC1` [Compound 79, N-((5-chloro-6-(isoxazol-3-ylmethoxy)-1H-indol-2-yl)methyl)azetidine-1-carboxamide]: the half-maximal inhibitory concentration (IC50) turned out to be 272 nM.

On to `Cc1cc(COc2cc3[nH]c(CNC(=O)C4(C(F)F)CC4)cc3cc2Cl)on1` [Compound 565, N-((5-chloro-6-((3-methylisoxazol-5-yl)methoxy)-1H-indol-2-yl)methyl)-1-(difluoromethyl)cyclopropane-1-carboxamide], for which the 50% inhibitory concentration (IC50) was found to be 286 nM.

In the case of `CN(Cc1cn[nH]c1)C(=O)NCc1cc2cc(Cl)c(OCc3ccon3)cc2[nH]1` [Compound 629, 1-((1H-pyrazol-4-yl)methyl)-3-((5-chloro-6-(isoxazol-3-ylmethoxy)-1H-indol-2-yl)methyl)-1-methylurea], the IC50 came to 1070 nM.

Take `O=C(CC(F)F)NCc1cc2cc(Cl)c(OCc3cscn3)cc2[nH]1` [Compound 513, N-((5-chloro-6-(thiazol-4-ylmethoxy)-1H-indol-2-yl)methyl)-3,3-difluoropropanamide]: the IC50 was 86.2 nM.

In the case of `O=C(NCc1cc2cc(OC(F)(F)F)c(OCc3ccon3)cc2[nH]1)N1CCCC1` [Compound 420, N-((6-(isoxazol-3-ylmethoxy)-5-(trifluoromethoxy)-1H-indol-2-yl)methyl)pyrrolidine-1-carboxamide], the concentration for half-maximal inhibition (IC50) turned out to be 355 nM.

On to `Cc1cc(COc2cc3[nH]c(CNC(=O)N4CCCC4)cc3cc2F)on1` [Compound 118, N-((5-fluoro-6-((3-methylisoxazol-5-yl)methoxy)-1H-indol-2-yl)methyl)pyrrolidine-1-carboxamide], for which the IC50 was 1110 nM.

For the compound `O=C(NCc1cc2cc(Cl)c(OCc3cscn3)cc2[nH]1)N1CC(CO)C1` [Compound 368, N-((5-chloro-6-(thiazol-4-ylmethoxy)-1H-indol-2-yl)methyl)-3-(hydroxymethyl)azetidine-1-carboxamide], the IC50 is over 5480 nM.

`CC1(C(=O)NCc2cc3cc(-c4ccon4)c(OCc4cscn4)cc3[nH]2)CC1` [Compound 659, N-((5-(isoxazol-3-yl)-6-(thiazol-4-ylmethoxy)-1H-indol-2-yl)methyl)-1-methylcyclopropane-1-carboxamide]: the 50% inhibitory concentration (IC50) came out at 1970 nM.

For the compound `CC(=O)NCc1cc2cc(Cl)c(OC[C@@H]3CCCO3)cc2[nH]1` [Compound 466, (S)-N-((5-chloro-6-((tetrahydrofuran-2-yl)methoxy)-1H-indol-2-yl)methyl)acetamide], the half-inhibitory concentration (IC50) turned out to be 2960 nM.

Regarding `O=C(NCc1cc2cc(Cl)c(CCc3cscn3)cc2[nH]1)N1CCCC1` [Compound 418, N-((5-chloro-6-(2-(thiazol-4-yl)ethyl)-1H-indol-2-yl)methyl)pyrrolidine-1-carboxamide], the IC50 came to 163 nM.

Take `O=C(CC12CC(C1)C2)NCc1cc2cc(Cl)c(OCc3cscn3)cc2[nH]1` [Compound 555, 2-(bicyclo[1.1.1]pentan-1-yl)-N-((5-chloro-6-(thiazol-4-ylmethoxy)-1H-indol-2-yl)methyl)acetamide]: the IC50 is 3040 nM.

As for `CC(C)c1cc2cc(CNC(=O)C3(C)CC3)[nH]c2cc1OCc1ccon1` [Compound 204, N-((5-isopropyl-6-(isoxazol-3-ylmethoxy)-1H-indol-2-yl)methyl)-1-methylcyclopropane-1-carboxamide], the half-maximal inhibitory concentration (IC50) stood at 536 nM.

Regarding `[2H]C([2H])([2H])c1cc(COc2cc3[nH]c(CNC(=O)C4(C)CC4)cc3cc2Cl)no1` [Compound 663, N-((5-chloro-6-((5-(methyl-d3)isoxazol-3-yl)methoxy)-1H-indol-2-yl)methyl)-1-methylcyclopropane-1-carboxamide], the IC50 was 134 nM.

`[2H]C([2H])([2H])C(=O)NCc1cc2cc(Cl)c(OCc3cc(C)no3)cc2[nH]1` [Compound 562, N-((5-chloro-6-((3-methylisoxazol-5-yl)methoxy)-1H-indol-2-yl)methyl)acetamide-2,2,2-d3]: the IC50 amounted to 83.3 nM.

As to `C[C@@H](O)C(=O)NCc1cc2cc(Cl)c(OCc3cscn3)cc2[nH]1` [Compound 257, (R)-N-((5-chloro-6-(thiazol-4-ylmethoxy)-1H-indol-2-yl)methyl)-2-hydroxypropanamide], the half-inhibitory concentration (IC50) was found to be 756 nM.

With `Cc1cc(COc2cc3[nH]c(CNC(=O)[C@@H]4COCCO4)cc3cc2Cl)on1` [Compound 303, (S)-N-((5-chloro-6-((3-methylisoxazol-5-yl)methoxy)-1H-indol-2-yl)methyl)-1,4-dioxane-2-carboxamide], the half-maximal inhibitory concentration (IC50) amounted to 814 nM.

`COC(=O)NCc1cc2cc(Cl)c(OCc3cc(C)no3)cc2[nH]1` [Compound 625, methyl ((5-chloro-6-((3-methylisoxazol-5-yl)methoxy)-1H-indol-2-yl)methyl)carbamate]: the 50% inhibitory concentration (IC50) came to 90.2 nM.

`Cc1cc(COc2cc3[nH]c(CNC(=O)[C@H]4CC[C@@H]4O)cc3cc2Cl)on1` (racemic) [Compound 248, (1R,2R)-N-((5-chloro-6-((3-methylisoxazol-5-yl)methoxy)-1H-indol-2-yl)methyl)-2-hydroxycyclobutane-1-carboxamide and (1S,2S)-N-((5-chloro-6-((3-methylisoxazol-5-yl)methoxy)-1H-indol-2-yl)methyl)-2-hydroxycyclobutane-1-carboxamide]: the IC50 came to 627 nM.

Regarding `O=C(NCc1cc2cc(Cl)c(OCc3cscn3)cc2[nH]1)[C@@H]1CCO1` [Compound 315, (S)-N-((5-chloro-6-(thiazol-4-ylmethoxy)-1H-indol-2-yl)methyl)oxetane-2-carboxamide], the IC50 was 148 nM.

For the compound `CCc1cc2cc(CNC(=O)C3(C)CC3)[nH]c2cc1OCc1cscn1` [Compound 202, N-((5-ethyl-6-(thiazol-4-ylmethoxy)-1H-indol-2-yl)methyl)-1-methylcyclopropane-1-carboxamide], the IC50 turned out to be 1560 nM.

As for `Cc1cc(COc2cc3[nH]c(CNC(=O)C(F)(F)F)cc3cc2Cl)on1` [Compound 662, N-((5-chloro-6-((3-methylisoxazol-5-yl)methoxy)-1H-indol-2-yl)methyl)-2,2,2-trifluoroacetamide], the half-maximal inhibitory concentration (IC50) came to 123 nM.
